Type in all cases: physicochemical
Data set [1] in a line: Ambient polymorph screen with wet solvents (slurry conversion, relative form stability). The following applies: for Polymorph Isolated: starting Form I, ambient.
Data set [2] in a line: Thermal water loss and degradation (TGA/DTA, DSC, fusion microscopy).
A short description of data set [3]: Hygroscopicity / water uptake and loss at relative humidity (VTI).
Data set [4] in a line: Solubility of polymorphs (aqueous intrinsic / aqueous equilibrium solubility).

Usually solubility stands for the concentration that dissolves in the medium under given conditions.

Counter-ions that a name gives are not always drawn. Like-named read-outs stand apart in the source and are kept apart here.

With `COc1ccc(C(C)C)cc1CN[C@H]1C2CCN(CC2)[C@H]1C(c1ccccc1)c1ccccc1` [Form II, (2-Benzhydryl-1-azo-bicyclo 2,2,2oct-3-yl)-(5-isoproyl-2-methoxybenzyl)-amine], the “relative stability of the polymorph” value in data set [1] (compared with Form I) is given as “lower energy, more stable form than Form I”. The TGA/DTA degradation temperature in data set [2] stood at 178 °C. Further, in data set [2] (fusion microscopy), the “Fusion Microscopy water loss (in words)” value is given as “Sharp water loss” and the “Fusion Microscopy water loss temperature” value is ~ 100 °C. Moreover, the “VTI (% H2 O absorbed)” value in data set [3] is reported as 0.4 % wt. For the same compound, in data set [4] (aqueous), the “Aqueous Equilibrium” value is 395 mg/mL. Also, in data set [4] (aqueous, intrinsic), the “Aqueous Intrinsic Solubility” value is under 329 mg/mL. In addition, the solubility in data set [4] (medium not stated) is 390-400 milligrams per milliliter.
Regarding `COc1ccc(C(C)C)cc1CN[C@H]1C2CCN(CC2)[C@H]1C(c1ccccc1)c1ccccc1` [Form I, (2-Benzhydryl-1-azo-bicyclo 2,2,2oct-3-yl)-(5-isoproyl-2-methoxybenzyl)-amine], the “conversion to Form II in slurry” value is given as “the conversion is to Form II” in data set [1] (THF with about 3% to 5% H2 O) and “no conversion to Form II” in data set [1] (THF with less than 2% H2 O). The “Polymorph Isolated” value is reported as “Form II” in data set [1] (Acetone/5% H2 O, slurry); “Form I” in data set [1] (Acetonitrile/5% H2 O, slurry); “Form II” in data set [1] (Ethyl Acetate/3.5% H2 O, slurry); “Form II” in data set [1] (H2 O, solutions seeded with Form II); “Form I” in data set [1] (IPO/5% H2 O, slurry); “Form II” in data set [1] (Tetrahydrofuran/5% H2 O, slurry). For the same compound, in data set [2] (DSC), the DSC degradation temperature is ~ 230 °C. Besides, the “DSC water loss (in words)” value in data set [2] (DSC) is given as “undetected”. The same compound showed a TGA/DTA degradation temperature in data set [2] of 194 °C. Moreover, in data set [2] (fusion microscopy), the “Fusion Microscopy water loss (in words)” value was “Slow water loss”. The “hygroscopicity (in words)” value in data set [3] is “nonhydroscopic”. In addition, in data set [3], the “VTI (% H2 O absorbed)” value came out at 0.8 % wt. Also, the “Aqueous Equilibrium” value in data set [4] (aqueous) was over 1155 mg/mL. Further, in data set [4] (slurried in THF with >5% H2 O), the “solubility in wet THF (in words)” value is “solubility increases dramatically”. Moreover, the solubility in data set [4] (water, aqueous, intrinsic, read-out: Aqueous Intrinsic Solubility) was over 648 mg/mL.
As to `COc1ccc(C(C)C)cc1CN[C@H]1C2CCN(CC2)[C@H]1C(c1ccccc1)c1ccccc1` [anhydrous dihydrochloride, anhydrous dihydrochloride of (2-Benzhydryl-1-azo-bicyclo 2,2,2oct-3-yl)-(5-isoproyl-2-methoxybenzyl)-amine], the “hygroscopicity (in words)” value in data set [3] is “hygroscopic”. Further, the “hygroscopicity (humidity at which hygroscopic and forms dihydrates)” value in data set [3] (about 52% humidity or greater) is listed as at least 52%.

Source of the values: patent US6262067A, “Polymorphs of a crystalline azo-bicyclo 2,2,2 OCT-3-yl amine dihydrochloride and their pharmaceutical compositions” (priority 2000, dated 2001).
